Results published in US8647119B1, “Methods and kits with fluorescent probes for caries detection” (President and Fellows of Harvard College, priority 2006, dated 2014).
Where “and” joins values, the source holds several entries; their conditions need not be identical. Equal entries are not always repeated.

Tests used:
[1] = part of regular human diet or excess excreted; cited from earlier work
[2] = Detection probes on interproximal models of extracted human teeth; conditions: for optical signal of early stage caries lesion with bound probe (photograph): synthetic tooth preparation, FIG. 3-8
Procedure: Interproximal models of extracted human teeth (molars and premolars) were fabricated using silicon impression materials. Interproximal enamel caries at about […] depth and at about 1.5 mm depth were prepared by using areas of interproximal contact regions. The dental preparations having synthetic caries were assessed by radiographic films (bitewings) and a microscope.
A cotton ball was saturated with the detection probe, and placed in contact with the region of the interproximal enamel caries. The bound probe was observed by illuminating over a varying set of different wavelengths of excitation light, followed by detecting light of fluorescent emissions. Furthermore, absorbance of the illuminating wavelengths was detected as appropriate for each probe.
Each tooth preparation having interproximal enamel caries and bound probe was illuminated and photographed.
(§1) Probes were tested for appropriate concentration, kinetics of binding and retention. Intensity of the illumination light, and the size of the illumination light beam were varied, and data were recorded for each probe. […] The concentration of each probe was varied to determine an optimum concentration for binding during a time period suitable for dental use. Durations of contacting were also tested, for example about 10 seconds, about 20 seconds, about 40 seconds, or about 60 seconds.

[3] = cited from earlier work
[4] = Intensity and duration of fluorescence of diluted probes bound to caries; conditions: deep and shallow lesions
Procedure: as §1

[5] = Hydrogen peroxide removal of OsteoSense 750 from five teeth having caries, absorbance at 750 nm; conditions: teeth A to E

Structure (SMILES)	known toxicity [1]	optical signal of early stage caries lesion with bound probe (photograph) [2]	also measured
C1=Cc2cc3ccc(cc4nc(cc5ccc(cc1n2)[nH]5)C=C4)[nH]3 [Porphyrin]	no known toxicity	Fluorescence of an early stage caries lesion was observed	–
C=Cc1c(C)c2cc3nc(c4c5[n-]c(cc6nc(cc1[n-]2)C(C)=C6CC)c(C)c5C(=O)[C@@H]4C(=O)OC)[C@@H](CCC(=O)OC/C=C(\C)CCC[C@H](C)CCC[C@H](C)CCCC(C)C)[C@@H]3C.[Mg+2] [Chlorophyll A]	no known toxicity	Fluorescence of an early stage caries lesion was observed	interproximal caries observed with probe ([2]; excitation light, emission detected, FIG. 9): Interproximal caries were observed
Cc1cc2nc3c(=O)[nH]c(=O)nc-3n(C[C@H](O)[C@H](O)[C@H](O)CO)c2cc1C [Riboflavin]	–	–	water solubility [3]: water soluble
COc1cccc2c1C(=O)c1c(O)c3c(c(O)c1C2=O)C[C@@](O)(C(=O)CO)C[C@@H]3O[C@H]1C[C@H](N)[C@H](O)[C@H](C)O1 [Doxorubicin]	–	Fluorescence of an early stage caries lesion was observed	–
CCN1C(=CC=CC=CC=CC2=[N+](CCCCCC(=O)O)c3ccc(S(=O)(=O)O)cc3C2(C)C)C(C)(C)c2cc(S(=O)(=O)[O-])ccc21 [Cy7]	–	–	fluorescent intensity compared to IR820 (ICG) ([4]; 1:10 and 1:100 dilutions): greater fluorescent intensity at each concentration and lesion depth compared to IR820 (ICG); retained fluorescence intensity compared to CardioGreen (ICG) ([4]; diluted 1:10): retained much greater intensity in both deep and shallow lesions compared to images of CardioGreen (ICG) diluted 1:10
OO [hydrogen peroxide]	–	–	% OsteoSense 750 removed (g) [5]: 80% and 93% and 88%
